“Also recorded” adds a separate entry of the source. Where a name gives a salt, the structure may show the parent alone. Read-outs that look alike come from different tables or passages of the source.
Experiments:
[1] = tested on: microglia; settings: shown previously; cited from earlier work
[2] = tested on: human neurons; test: Iron (FeSO4) mediated neurotoxicity screening, MAP-2 positive neurons counted; type: cell-based; settings: for viability at 10 µM: Homo sapiens, Neuron, drug 10 μM 1 h before FeSO4 25 or 50 μM, MAP-2 neurons after 24 h, read-out: Drug % control (mean): number of neurons normalized to untreated control
Method in brief: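 Fetal human neurons (15-20 wk), plated with cytosine arabinoside, were pre-incubated 1 h with compounds (10 mM DMSO stocks) before FeSO4 at 25-50 μM final. Cells fixed a day later; MAP-2 immunostaining plus Hoechst nuclei imaged automatically, sites per well averaged; quadruplicates.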

[3] = tested on: T-cells; test: Proliferation of T-lymphocytes (3H-thymidine) in anti-CD3/anti-CD28 activated splenocytes; type: cell-based, mouse; settings: for inhibition at 10 µM: Mus musculus, T-cell, 72 h, drug 10 μM, vs activated splenocytes, read-out: mean reduction of 3H-thymidine incorporation (T-cell proliferation)
Protocol: A previously published protocol was used for isolating and activating T-cells (Keough et al., Nature Comm 7:11312, 2016). Spleens from female C57B16 mice were harvested and after mechanical dissociation the cell suspension was passed through a 70 μm cell strainer and separated by Ficoll gradient (1800 RPM, 30 min). Splenocytes were plated (2.5×10^5 cells in 100 μl/well) in anti-CD3 antibody coated 96-well plates (1,000 ng m1^−1 plate-bound anti-CD3 and 1,000 ng m1^−1 anti-CD28 suspended in media) to activate T-cells. Directly before plating, wells were treated with respective drugs in a final concentration of 10 μM. Cells were cultured in RPMI 1640 medium, supplemented with 10% FBS, 1 μM sodium pyruvate, 2 mM L-alanyl-L-glutamine, 1% penicillin/streptomycin, 1% HEPES and 0.05 mM 2-mercaptoethanol (all supplements were from Invitrogen). After 48 h, ^3H-thymidine was added in a concentration of 1 μCi per well, and cells were harvested after 24 h on filter mats. Mats were then evaluated for radioactivity (counts per minute) using a liquid scintillation counter.

[4] = tested on: human neurons; test: Mitochondrial damage to neurons induced by rotenone; type: cell-based; settings: rotenone 10 μM, drug 10 μM
Protocol: Human neurons were isolated from brain tissues of therapeutically aborted 15-20 week old fetuses, in accordance with ethics approval of the University of Calgary ethics committee, after written informed consent of the pregnant donors. Neurons were isolated as previously described (Vecil et al., 2000) brain specimens were washed in phosphate buffered saline (PBS) to remove blood, followed by removal of meninges. […] Thereafter, the digestion was stopped by addition of 4 ml fetal calf serum (FCS). The solution was filtered through a 132 μm filter and centrifuged (three times, 1,200 rpm, 10 min). Cells were cultured in feeding medium of minimal essential medium (MEM) supplemented with 10% fetal bovine serum (FBS), 1 μM sodium pyruvate, 10 μM glutamine, 1× non-essential amino acids, 0.1% dextrose and 1% penicillin/streptomycin (all culture supplements from Invitrogen, Burlington, Canada). […] For experiments, the neuron-enriched cultures were retrypsinized and cells were plated in poly-L-ornithine pre-coated 96-well plates at a density of 100,000 cells/well in 100 μl of the complete medium supplemented with cytosine arabinoside. […] All conditions were performed in quadruplicates. A day later cells were fixed using 4% paraformaldehyde (PFA) and stored in PBS in 4° C.
The iron stock solution was prepared using 27.8 mg iron(II) sulfate heptahydrate (FeSO4) (Sigma-Aldrich, Oakville, Canada), 10 μl of 17.8M sulfuric acid and 10 ml deionized distilled water. After filtering with a 0.2 μm filter, FeSO4 was added to cells in a final concentration of 25-50 μM in a volume of 50 μl medium to the cells. Rotenone was dissolved in dimethyl sulfoxide (DMSO) and used in a final concentration of 10 μM.

[5] = Hydroxyl radical antioxidant capacity (HORAC) assay; type: biochemical; settings: vs 12.5 μM gallic acid (=1), 60 min
Protocol: In this assay, hydroxyl radicals generated by a Co(II)-mediated Fenton-like reaction oxidize fluorescein causing loss of fluorescence (Ou et al., J Argricultural Food Chemistry 50:2772-2777, 2002). The presence of an anti-oxidant reduces the loss of fluorescence and this can be monitored every 5 min over a period of 60 min with a Spectra Max Gemini XS plate reader (Molecular Devices, Sunnyvale, Calif., USA) and the software SoftMax Pro version 5. For monitoring fluorescence, we used an excitation wavelength of λ=485 nm and an emission wavelength of λ=520 nm.
The biochemical cell free hydroxyl radical antioxidant capacity (HORAC) assay investigates the prevention of hydroxyl radical mediated oxidation of to fluorescein in comparison to the strong anti-oxidant gallic acid. The generation of hydroxyl radicals by a cobalt-driven Fenton-like reaction oxidizes fluorescein with progressive loss of fluorescence. The presence of an anti-oxidant reduces the loss of fluorescence over time.
We compared the area under the curve of test compounds to that elicited by gallic acid to obtain the gallic acid equivalent (GAE).

[6] = tested on: human neurons; test: Live cell imaging of propidium iodide positive neurons challenged with FeSO4; type: cell-based; settings: FeSO4 50 μM, pre-treatment 1 h
Protocol: Neurons were prepared as described above. Directly after the addition of FeSO4 to healthy neurons, the live cell-permeant Hoechst 33342 (1:2 diluted in AIM-V medium, nuclear blue; ThermoFisher Scientific, Grand Island, NY, USA) and the live cell-impermeable propinium iodide (PI, 1:20 diluted in AIM-V medium) were added in a volume of 20 μI (Sigma-Aldrich). In compromised cells, PI could now diffuse across the plasma membrane. Live cell imaging was performed using the automated ImageXpress® imaging system under controlled environmental conditions (37° C. and 5% CO2). Images were taken from 9 sites per well at baseline and then every 30 min for 12h. After export with MetaXpress®, videos were edited with ImageJ (NIH) in a uniform manner. Nuclei were pseudo colored in cyan, PI-positive cells in red.
Live cell imaging over 12 h supported the neuroprotective effects of drugs. We selected indapamide and desipramine for live imaging studies.

[7] = tested on: mice; test: Lysolecithin demyelination of the spinal cord in aging 8-10 months old mice; type: in vivo, mouse; settings: 20 mg/kg IP immediately after lysolecithin and once per day for 2 days; day 3
Source text: Active demyelinating lesions can be found in MS specimens of all ages sampled, including late in life. Indeed, age has been identified to be a factor in the dreaded conversion from relapsing-remitting into secondary progressive MS. Contributing causes for aging-associated worsening in MS that drives progression include the steady loss of axons with longevity of disease, or the deficient repair of myelin in older compared to younger patients. We tested the hypothesis that the same demyelinating injury is more devastating to axons and myelin as the individual ages.
We thus treated aging 8-10 months old mice with intraperitoneal indapamide (20 mg/kg) immediately after lysolecithin demyelination, and once per day at 20 mg/kg for the next 2 days. Spinal cord tissues were taken for histology.

[8] = 1 h after the last of 16 daily clomipramine injections, 25 mg/kg IP
Protocol: One h after the last administration of clomipramine animals were anesthetized with ketamine/xylazine, blood was taken by an intracardiac puncture for serum, and animals were then subjected to PBS-perfusion. […] Cervical and lumbar cords were snap frozen.
For preparation of samples, 100 pl of ice cold methanol were added to 100 pl of serum in each sample after addition of the internal standard maprotiline. The tubes were vortexed and left on ice for 10 min followed by centrifugation at 10,000×g for 4 min. An equal amount of distilled water was added to each supernatant. Spinal cord samples were each homogenized in 10 volumes of ice-cold 80% methanol. Twenty pl of o-phosphoric acid were added to all samples after addition of internal standard (maprotiline). The tubes were vortexed and left on ice for 10 min, followed by centrifugation at 10,000×g for 4 min and an equal volume of distilled water was added to each supernatant. […]
Calibration curves consisting of varying amounts of authentic clomipramine and N-desmethylclomipramine and the same fixed amount of maprotiline as added to the samples being analyzed were run in parallel through the procedure described above and the ratios of clomipramine and N-desmethylclomipramine to maprotiline were used to determine the amount of drug and metabolite in the serum and spinal cord samples.

## CN(C)CCC=C1c2ccccc2COc2ccccc21 [DOXEPIN HYDROCHLORIDE]
[1]
  microglial activation reduced to: 46%
[2]
  viability at 10 µM: 76.9%
[3]
  inhibition at 10 µM: 85.3%

## CNCCCN1c2ccccc2CCc2ccccc21 [DESIPRAMINE HYDROCHLORIDE]
[4]
  neurotoxicity by rotenone (mitochondrial damage): active against damage to the mitochondrial respiratory chain
[5]
  mean HORAC-GAE (gallic acid equivalents): -5.00
[2]
  protection from FeSO4-mediated neurotoxicity (in words): strong protection
  viability at 10 µM: 84.4%
[3]
  inhibition at 10 µM: 92.2%
[6]
  number of PI-positive neurons in response to FeSO4 over 12 h: significantly attenuated

## CC1Cc2ccccc2N1NC(=O)c1ccc(Cl)c(S(N)(=O)=O)c1 (centres unmarked) [INDAPAMIDE]
[7]
  axonal loss: less axonal loss
  lesional malondialdehyde level: reduced lesional malondialdehyde
  volume of demyelination: smaller volume of demyelination
[4]
  neurotoxicity by rotenone (mitochondrial damage): reduced neurotoxicity; also recorded: active against damage to the mitochondrial respiratory chain
[5]
  mean HORAC-GAE (gallic acid equivalents): 4.1
[2]
  viability at 10 µM: 126%
[2]; drug 10 μM, human neurons
  protection from FeSO4-mediated neurotoxicity (in words): strong neuroprotective effects against iron toxicity
[3]
  effect on T-lymphocyte proliferation (in words): no effect on T-lymphocyte proliferation
[6]
  number of PI-positive neurons in response to FeSO4 over 12 h: significantly attenuated

## CNCCCN1c2ccccc2CCc2ccc(Cl)cc21 [desmethylclomipramine]
[8]
  mean serum concentration: 0.101 µM
  mean spinal cord level: 1.5 µM

Reference: US20210393645A1, “TREATMENT FOR PROGRESSIVE MULTIPLE SCLEROSIS” (UTI LIMITED PARTNERSHIP, priority 2016, published 2021)
